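Step 1: Grow cells in 96-well plates. Step 2: Expose to compound for 48 hours at 5 concentrations. Step 3: Interpolate endpoints linearly; if unreached, use highest concentration. TGI denotes the concentration required for complete inhibition of growth.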
Columns and labels:
Assay in all cases: NCI tumour cell line growth inhibition, 48 h
[1] = system: OVCAR-4 ovarian
[2] = system: 786-0 renal
[3] = system: MOLT-4 leukemia
[4] = system: SNB-78 CNS
[5] = system: HCT-15 colon
[6] = system: K-562 leukemia
[7] = system: SW-620 colon
[8] = system: UO-31 renal
[9] = system: M19-MEL melanoma
[10] = system: LOX IMVI melanoma
[11] = system: ACHN renal
[12] = system: HL-60(TB) leukemia
[13] = system: M14 melanoma
[14] = system: HOP-62 NSCLC
[15] = system: NCI-H460 lung
[16] = system: UACC-257 melanoma
[17] = system: HCC-2998 colon
[18] = system: U251 CNS
[19] = system: OVCAR-8 ovarian
[20] = system: HT29 colon
[21] = system: SF-295 CNS
[22] = system: SN12C renal
[23] = system: HCT-116 colon
[24] = system: COLO 205 colon
[25] = system: SR leukemia
[26] = system: SNB-19 CNS
[27] = system: OVCAR-5 ovarian
[28] = system: OVCAR-3 ovarian
[29] = system: EKVX NSCLC
[30] = system: NCI-H226 lung
[31] = system: A549 NSCLC
[32] = system: KM20L2 colon
[33] = system: CCRF-CEM leukemia
[34] = system: TK-10 renal
[35] = system: NCI-H23 lung
[36] = system: CAKI-1 renal
[37] = system: SK-OV-3 ovarian
[38] = system: DMS 114 small cell lung
[39] = system: NCI-H522 lung
[40] = system: SK-MEL-2 melanoma
[41] = system: SF-268 CNS
[42] = system: MALME-3M melanoma
[43] = system: KM12 colon
[44] = system: SF-539 CNS
[45] = system: IGROV1 ovarian
[46] = system: DMS 273 small cell lung
[47] = system: RPMI-8226 leukemia
[48] = system: SK-MEL-28 melanoma
[49] = system: HOP-92 NSCLC
[50] = system: DLD-1 colon
[51] = system: UACC-62 melanoma
[52] = system: SK-MEL-5 melanoma
[53] = system: SNB-75 CNS
[54] = system: HOP-18 NSCLC
[55] = system: A498 renal
[56] = system: XF 498 CNS
[57] = system: LXFL 529 NSCLC
[58] = system: RXF 393 renal

Cc1cnc2c(C)ccc([N+](=O)[O-])c2c1NCCCN(C)C
TGI [1]: > 100 µM
TGI [2]: > 100 µM
TGI [3]: > 100 µM
TGI [4]: > 100 µM
TGI [5]: > 100 µM
TGI [6]: > 100 µM
TGI [7]: > 100 µM
TGI [8]: > 100 µM
TGI [9]: > 100 µM
TGI [10]: > 100 µM
TGI [11]: > 100 µM
TGI [12]: > 100 µM
TGI [13]: > 100 µM
TGI [14]: > 100 µM
TGI [15]: > 100 µM
TGI [16]: > 100 µM
TGI [17]: > 100 µM
TGI [18]: > 100 µM
TGI [19]: > 100 µM
TGI [20]: > 100 µM
TGI [21]: > 100 µM
TGI [22]: > 100 µM
TGI [23]: > 100 µM
TGI [24]: > 100 µM
TGI [25]: > 100 µM
TGI [26]: > 100 µM
TGI [27]: > 100 µM
TGI [28]: > 100 µM
TGI [29]: > 100 µM
TGI [30]: > 100 µM
TGI [31]: > 100 µM
TGI [32]: > 100 µM
TGI [33]: > 100 µM
TGI [34]: > 100 µM
TGI [35]: > 100 µM
TGI [36]: > 100 µM
TGI [37]: > 100 µM
TGI [38]: > 100 µM
TGI [39]: > 100 µM
TGI [40]: > 100 µM
TGI [41]: > 100 µM
TGI [42]: > 100 µM
TGI [43]: > 100 µM
TGI [44]: > 100 µM
TGI [45]: > 100 µM
TGI [46]: > 100 µM
TGI [47]: > 100 µM
TGI [48]: > 100 µM

CC1=C(C(=O)Nc2ccccc2C)C(c2ccccc2)C(C(=O)Nc2ccccc2C)=C(C)N1
TGI [1]: > 100 µM
TGI [49]: 41.2 µM
TGI [2]: > 100 µM
TGI [50]: > 100 µM
TGI [3]: 53 µM
TGI [4]: 97.4 µM
TGI [5]: > 100 µM
TGI [6]: > 100 µM
TGI [7]: > 100 µM
TGI [8]: > 100 µM
TGI [9]: > 100 µM
TGI [51]: > 100 µM
TGI [10]: 42.6 µM
TGI [11]: > 100 µM
TGI [12]: 43.3 µM
TGI [13]: > 100 µM
TGI [14]: > 100 µM
TGI [15]: > 100 µM
TGI [52]: 90 µM
TGI [16]: > 100 µM
TGI [17]: > 100 µM
TGI [18]: > 100 µM
TGI [19]: > 100 µM
TGI [20]: > 100 µM
TGI [21]: > 100 µM
TGI [53]: > 100 µM
TGI [22]: > 100 µM
TGI [23]: > 100 µM
TGI [24]: 74.2 µM
TGI [25]: 42.5 µM
TGI [26]: > 100 µM
TGI [27]: > 100 µM
TGI [54]: > 100 µM
TGI [28]: > 100 µM
TGI [29]: > 100 µM
TGI [30]: > 100 µM
TGI [31]: > 100 µM
TGI [55]: > 100 µM
TGI [32]: > 100 µM
TGI [33]: 73.9 µM
TGI [34]: > 100 µM
TGI [35]: > 100 µM
TGI [36]: > 100 µM
TGI [56]: 83.2 µM
TGI [37]: > 100 µM
TGI [38]: > 100 µM
TGI [39]: > 100 µM
TGI [40]: 93 µM
TGI [41]: > 100 µM
TGI [42]: > 100 µM
TGI [43]: > 100 µM
TGI [44]: > 100 µM
TGI [45]: > 100 µM
TGI [46]: > 100 µM
TGI [57]: > 100 µM
TGI [58]: 71.6 µM
TGI [48]: > 100 µM

O=C(O)c1c(-c2cccc3ccccc23)sc(-c2cccc3ccccc23)c1C(=O)O
TGI [49]: > 100 µM
TGI [2]: > 100 µM
TGI [50]: > 100 µM
TGI [3]: 85.7 µM
TGI [4]: > 100 µM
TGI [5]: > 100 µM
TGI [6]: > 100 µM
TGI [7]: > 100 µM
TGI [8]: > 100 µM
TGI [9]: > 100 µM
TGI [51]: > 100 µM
TGI [10]: > 100 µM
TGI [11]: > 100 µM
TGI [12]: > 100 µM
TGI [13]: > 100 µM
TGI [15]: > 100 µM
TGI [52]: > 100 µM
TGI [16]: > 100 µM
TGI [17]: > 100 µM
TGI [18]: > 100 µM
TGI [19]: > 100 µM
TGI [20]: > 100 µM
TGI [21]: > 100 µM
TGI [53]: > 100 µM
TGI [22]: > 100 µM
TGI [23]: > 100 µM
TGI [24]: > 100 µM
TGI [25]: > 100 µM
TGI [26]: > 100 µM
TGI [27]: > 100 µM
TGI [54]: > 100 µM
TGI [28]: > 100 µM
TGI [29]: > 100 µM
TGI [30]: > 100 µM
TGI [31]: > 100 µM
TGI [32]: > 100 µM
TGI [33]: > 100 µM
TGI [34]: > 100 µM
TGI [35]: > 100 µM
TGI [56]: > 100 µM
TGI [37]: > 100 µM
TGI [38]: > 100 µM
TGI [39]: > 100 µM
TGI [40]: > 100 µM
TGI [41]: > 100 µM
TGI [42]: > 100 µM
TGI [43]: > 100 µM
TGI [44]: > 100 µM
TGI [45]: > 100 µM
TGI [46]: > 100 µM
TGI [57]: > 100 µM
TGI [58]: > 100 µM
TGI [47]: > 100 µM
TGI [48]: > 100 µM

— PubChem BioAssay (NCI)
